We go through 35 compounds from ChEMBL document CHEMBL1153187 (Bioorg Med Chem Lett, 2010).

Data set [1] relates to Leishmania amazonensis. Kind of data set: Antileishmanial activity against Leishmania amazonensis MHOM/BR/76/LTB-012 axenic amastigotes by MTT assay. On the technique in general: Formazan colour is commonly taken as a measure of viable cells.
Data set [2] is described as follows: Toxicity against BALB/c mouse macrophage by MTT assay. The format is cell-based. As to conditions: mouse macrophages.
Data set [3] can be described thus: Selectivity index, ratio of IC50 for BALB/c macrophages to IC50 for Leishmania amazonensis (MHOM/BR/76/LTB-012).
Data set [4] relates to Leishmania amazonensis. Nature of the data set: Antileishmanial activity against Leishmania amazonensis LV79 MPRO/BR/72/M1841 infected in BALB/c mouse assessed as reduction in parasite burden at 33 mg/kg after 4 weeks. It counts as functional, organism-based. Also on record: dose 33 mg/kg; scale not given: the % may be the effect or the level left.
The subject of data set [5] is Leishmania amazonensis. Nature of the data set: Antileishmanial activity against Leishmania amazonensis LV79 MPRO/BR/72/M1841 infected in BALB/c mouse assessed as reduction in parasite burden at 33 mg/kg after 7 weeks. It counts as functional, organism-based. Also on record: dose 33 mg/kg; scale not given: the % may be the effect or the level left.
Data set [6] relates to Leishmania amazonensis. Kind of data set: Antileishmanial activity against Leishmania amazonensis LV79 MPRO/BR/72/M1841 infected in BALB/c mouse assessed as lesion diameter at 33 mg/kg after 4 weeks. It counts as functional, organism-based. Also on record: dose 33 mg/kg.
In data set [7] the test system is Leishmania amazonensis. Kind of data set: Antileishmanial activity against Leishmania amazonensis LV79 MPRO/BR/72/M1841 infected in BALB/c mouse assessed as lesion diameter at 5 mg/kg after 4 weeks. The format is functional.
In data set [8] the test system is Leishmania amazonensis. Nature of the data set: Antileishmanial activity against Leishmania amazonensis LMA CL1 amastigotes infected in mouse macrophage by MTT assay. The format is functional, organism-based.
For the next data set, the system named is Leishmania braziliensis. Kind of data set: Antileishmanial activity against Leishmania braziliensis MHOM/PE/PER006 promastigotes infected in mouse macrophage by MTT assay. The format is functional, organism-based.
Data set [9] deals with Leishmania amazonensis. Kind of data set: Antileishmanial activity against Leishmania amazonensis LV79 MPRO/BR/72/M1841 infected in BALB/c mouse assessed as reduction in parasite burden at 5 mg/kg after 4 weeks. The format is functional. Also on record: scale not given: the % may be the effect or the level left.
In data set [10] the test system is Leishmania amazonensis. Nature of the data set: Antileishmanial activity against Leishmania amazonensis LV79 MPRO/BR/72/M1841 infected in BALB/c mouse assessed as reduction in parasite burden at 5 mg/kg after 6 weeks. The format is functional. Also on record: scale not given: the % may be the effect or the level left.
The test system of the next data set is Leishmania peruviana. Kind of data set: Antileishmanial activity against Leishmania peruviana MHOM/PE/LCA08 promastigotes infected in mouse macrophage by MTT assay. It counts as functional, organism-based.

What is called IC50 is the point on the concentration scale where inhibition reaches its midpoint. Consider `COc1cc(O)cc(O)c1C(=O)/C=C/c1ccc(F)cc1`, for which the IC50 is 11.8 µM in the data set on Leishmania amazonensis [1] and 28.8 µM in [2]. The “Ratio IC50” value in data set [3] is reported as 2.4.

Consider `COc1cc(O)cc(O)c1C(=O)/C=C/c1ccccc1Br`, for which the IC50 in the data set on Leishmania amazonensis [1] is 10.6 µM; in data set [2], 14.6 µM. In data set [3], the “Ratio IC50” value was 1.4.

For the compound `C=CCOc1cc(OC)c(C(=O)/C=C/c2ccc(F)cc2)c(OCC=C)c1`, the IC50 was determined as 9.5 µM with Leishmania amazonensis [1] and 13.8 µM in [2]. Moreover, the “Ratio IC50” value in data set [3] is on record as 1.5.

Consider `C=CCOc1cc(OC)c(C(=O)/C=C/c2ccccc2F)c(OCC=C)c1`, for which the IC50 turned out to be 9.5 µM in the data set with Leishmania amazonensis [1] and 13.3 µM in [2]. Moreover, the “Ratio IC50” value in data set [3] was determined as 1.4.

With `COc1cc(O)cc(O)c1C(=O)/C=C/c1ccc(Cl)cc1`, the 50% inhibitory concentration (IC50) with Leishmania amazonensis [1] was 11.2 µM; in data set [2], 19 µM. Also, the “Ratio IC50” value in data set [3] was 1.7.

Take `COc1cc(O)cc(O)c1C(=O)/C=C/c1ccccc1F`: the figures for the IC50 (with Leishmania amazonensis [1]; in data set [2]) were 11.8 µM and 16 µM, respectively. Further, the “Ratio IC50” value in data set [3] turned out to be 1.4.

The compound `COc1cc(/C=C/C(=O)c2c(O)cc(O)cc2OC)ccc1O` came in with an IC50 with Leishmania amazonensis [1] of 14.9 µM.

MEGLUMINE ANTIMONATE: the Activity with Leishmania amazonensis [4] stood at 100%; with Leishmania amazonensis [5], 100%; in the data set with Leishmania amazonensis [6], 2.1 mm.

`C=CCOc1cc(OC)c(C(=O)/C=C/C=C/c2ccccc2)c(OCC=C)c1` returned an IC50 in the data set on Leishmania amazonensis [1] of 75.2 µM.

`COc1ccc(/C=C/C(=O)c2c(O)cc(OC)cc2OC)cc1` [FLAVOKAWAIN A]: the IC50 in the data set with Leishmania amazonensis [1] was 17.2 µM.

Regarding `COc1cc(O)cc(O)c1C(=O)/C=C/c1ccc(C)cc1`, the IC50 with Leishmania amazonensis [1] is 7.4 µM; in data set [2], 16.5 µM. Also, in data set [3], the “Ratio IC50” value came out at 2.2.

In the data set with Leishmania amazonensis [1], `COc1cc(/C=C/C(=O)c2c(O)cc(O)cc2OC)cc(OC)c1OC` gave an IC50 of 9.7 µM.

Turning to `COc1cc(O)cc(O)c1C(=O)/C=C/c1ccc(C(F)(F)F)cc1`, the IC50 in the data set on Leishmania amazonensis [1] is 8.6 µM; in data set [2], 17.1 µM. Moreover, the “Ratio IC50” value in data set [3] is recorded as 2.

Turning to `COc1cc(O)cc(O)c1C(=O)/C=C/c1ccc(O)cc1` [HELICHRYSETIN], the values for the IC50 (in the data set on Leishmania amazonensis [1]; in [2]) were 15.7 µM and 21.7 µM, respectively. In data set [3], the “Ratio IC50” value stood at 1.4.

For the compound `C=CCOc1cc(OC)c(C(=O)/C=C/c2ccncc2)c(OCC=C)c1`, the IC50 in the data set with Leishmania amazonensis [1] is 0.6 µM.

Take `C=CCOc1cc(/C=C/C(=O)c2c(O)cc(O)cc2OC)cc(OCC=C)c1Br`: the Activity is given as 3.1 mm in the data set with Leishmania amazonensis [7], 9% in the data set with Leishmania amazonensis [9] and 8% with Leishmania amazonensis [10]. For the same compound, the IC50 in the data set on Leishmania amazonensis [1] is 1.1 µM; in the data set on Leishmania amazonensis [8] it was 4.1 µM; in data set [2], 11.5 µM; in the data set on Leishmania braziliensis, 14.4 µM. Further, the “Ratio IC50” value in data set [3] is 10.5.

In the case of `C=CCOc1cc(OC)c(C(=O)/C=C/c2cccc(OC)c2)c(OCC=C)c1`, the values for the IC50 (in the data set with Leishmania amazonensis [1]; in [2]) were 8.7 µM and 13.1 µM, respectively. For the same compound, the “Ratio IC50” value in data set [3] is given as 1.5.

On to `C[C@@H]1[C@H](O)[C@@H](C)/C=C/C=C/C=C/C=C/C=C/C=C/C=C/[C@H](O[C@@H]2O[C@H](C)[C@@H](O)[C@H](N)[C@@H]2O)C[C@@H]2O[C@](O)(C[C@@H](O)C[C@@H](O)[C@H](O)CC[C@@H](O)C[C@@H](O)CC(=O)O[C@H]1C)C[C@H](O)[C@H]2C(=O)O` [AMPHOTERICIN B], for which the IC50 with Leishmania amazonensis [1] worked out at 0.1 µM; with Leishmania amazonensis [8] it was 0.4 µM; in data set [2] it was 5.3 µM; in the data set on Leishmania braziliensis it was 0.1 µM; in the data set with Leishmania peruviana, 0.1 µM. The “Ratio IC50” value in data set [3] is listed as 76.

On to `C=CCOc1cc(OC)c(C(=O)/C=C/c2ccc(Cl)cc2)c(OCC=C)c1`, for which the IC50 in the data set with Leishmania amazonensis [1] is 9.4 µM; in data set [2], 13 µM. Also, the “Ratio IC50” value in [3] was determined as 1.4.

Take `C=CCOc1cc(OC)c(C(=O)/C=C/c2ccc(C)cc2)c(OCC=C)c1`: in the data set with Leishmania amazonensis [1], half-maximal inhibition (IC50) was put at 79.8 µM.

For the compound `C=CCOc1cc(OC)c(C(=O)/C=C/c2ccc[nH]2)c(OCC=C)c1`, in the data set with Leishmania amazonensis [1], the IC50 is 94.3 µM.

For the compound `COc1cc(O)cc(O)c1C(=O)/C=C/C=C/c1ccccc1`, it took 52.6 µM to reach half-maximal inhibition in the data set on Leishmania amazonensis [1] (IC50).

For the compound `C=CCOc1cc(OC)c(C(=O)/C=C/c2ccc([N+](=O)[O-])cc2)c(OCC=C)c1`, the IC50 with Leishmania amazonensis [1] was determined as 8.3 µM; in data set [2], 13.2 µM. Moreover, in data set [3], the “Ratio IC50” value is 1.6.

For `C=CCOc1cc(OC)c(C(=O)/C=C/c2ccc(O)cc2)c(OCC=C)c1`, in the data set with Leishmania amazonensis [1], the IC50 is 85.2 µM.

For the compound `C=CCOc1cc(OC)c(C(=O)/C=C/c2ccccc2Br)c(OCC=C)c1`, the IC50 amounted to 7.9 µM in the data set on Leishmania amazonensis [1] and 5.4 µM in data set [2]. Also, the “Ratio IC50” value in [3] is 0.7.

Regarding `C=CCOc1cc(OC)c(C(=O)/C=C/c2ccc3c(c2)OCO3)c(OCC=C)c1`, the IC50 with Leishmania amazonensis [1] was 6.6 µM.

Turning to `COc1cc(O)cc(O)c1C(=O)/C=C/c1ccco1`, the IC50 is 4.6 µM with Leishmania amazonensis [1]; 16.9 µM in the data set on Leishmania amazonensis [8]; 384 µM in data set [2]; 30.4 µM with Leishmania braziliensis; 34.2 µM in the data set with Leishmania peruviana. In addition, the “Ratio IC50” value in data set [3] is 83.5.

`COc1cc(O)cc(O)c1C(=O)/C=C/c1ccc2c(c1)OCO2`: the half-maximal inhibitory concentration (IC50) in the data set on Leishmania amazonensis [1] was 4.1 µM; in the data set on Leishmania amazonensis [8], 16.6 µM; in data set [2] it was 157 µM; with Leishmania braziliensis it was 8.6 µM; with Leishmania peruviana it was 19.7 µM. Moreover, in data set [3], the “Ratio IC50” value was found to be 38.3.

With `COc1ccc(/C=C/C(=O)c2c(O)cc(O)cc2OC)cc1`, the IC50 with Leishmania amazonensis [1] stood at 10 µM; with Leishmania amazonensis [8], 14.3 µM; in [2], 166 µM; with Leishmania braziliensis, 7.6 µM; with Leishmania peruviana, 23 µM. The “Ratio IC50” value in data set [3] came to 16.6.

For the compound `C=CCOc1cc(OC)c(C(=O)/C=C/c2cc(OC)c(OC)c(OC)c2)c(OCC=C)c1`, the IC50 turned out to be 8.2 µM in the data set on Leishmania amazonensis [1] and 12 µM in data set [2]. Also, in data set [3], the “Ratio IC50” value is recorded as 1.5.

`COc1cccc(/C=C/C(=O)c2c(O)cc(O)cc2OC)c1`: the IC50 in the data set on Leishmania amazonensis [1] came to 12 µM; in data set [2], 17.6 µM. Further, the “Ratio IC50” value in [3] was 1.5.

For `C=CCOc1cc(OC)c(C(=O)/C=C/c2ccc(OC)cc2)c(OCC=C)c1`, the IC50 with Leishmania amazonensis [1] was found to be 5.5 µM; in data set [2] it was 18.7 µM. Moreover, the “Ratio IC50” value in data set [3] amounted to 3.4.

With `C=CCOc1cc(OC)c(C(=O)/C=C/c2ccccn2)c(OCC=C)c1`, the figures for the Activity with Leishmania amazonensis [7] and in the data set on Leishmania amazonensis [10] were 3 mm and 25%, respectively. Also, the IC50 stood at 1.1 µM in the data set with Leishmania amazonensis [1]; 0.9 µM with Leishmania amazonensis [8]; 12.5 µM in [2]; 1.4 µM in the data set on Leishmania braziliensis; 4 µM with Leishmania peruviana. The “Ratio IC50” value in [3] is 11.4.

Consider `COc1ccc(/C=C/C(=O)c2c(O)cc(O)cc2OC)c(OC)c1`, for which the IC50 in the data set on Leishmania amazonensis [1] is 6.4 µM; in the data set on Leishmania amazonensis [8], 28.5 µM; in [2], greater than 300 µM. Besides, the “Ratio IC50” value in [3] is listed as greater than 50.

Consider `C=CCOc1cc(OC)c(C(=O)/C=C/c2ccc(O)c(OC)c2)c(OCC=C)c1`, for which, in the data set with Leishmania amazonensis [1], the 50% inhibitory concentration (IC50) stood at 107 µM.
